From patent US10479794B2, “Cyclic ether derivatives of pyrazolo[1,5-a]pyrimidine-3-carboxyamide” (Boehringer Ingelheim International GmbH, priority 2015, dated 2019)

Test system: human MDR1 P-gp
Assay: Assessment of efflux in MDCK cells transfected with the human MDR1 gene (MDCK assay)
Format: in vitro ADME, canine
Conditions: dog; for efflux ratio at 2 h: MDCK-MDR1, pH 7.4, MDCK-MDR1, Papp (b-a) divided by Papp (a-b); for Papp A→B at 2 h: MDCK-MDR1, pH 7.4, MDCK-MDR1 monolayers, apical-to-basal, pH 7.4, 37° C.
Method: Assessment of Efflux in Madin-Darby Canine Kidney Cells Transfected with the Human MDR1 Gene (MDCK Assay)
Apparent permeability coefficients (PE) of the compounds across the MDCK-MDR1 cell monolayers are measured (pH 7.4, 37° C.) in apical-to-basal (AB) and basal-to-apical (BA) transport direction. AB permeability (PEAB) represents drug absorption from the blood into the brain and BA permeability (PEBA) drug efflux from the brain back into the blood via both passive permeability as well as active transport mechanisms mediated by efflux and uptake transporters that are expressed on the MDCK-MDR1 cells, predominantly by the overexpressed human MDR1 P-gp. The compounds are assigned to permeability/absorption classes by comparison of the AB permeabilities with the AB permeabilities of reference compounds with known in vitro permeability and oral absorption in the human. Identical or similar permeabilities in both transport directions indicate passive permeation, vectorial permeability points to additional active transport mechanisms. Higher PEBA than PEAB indicates the involvement of active efflux mediated by MDR1 P-gp. Active transport is concentration-dependently saturable.
MDCK-MDR1 cells (1-2×10e5 cells/1 cm2 area) are seeded on filter inserts (Costar transwell polycarbonate or PET filters, 0.4 μm pore size) and cultured (DMEM) for 7 days. Subsequently, the MDR1 expression is boosted by culturing the cells with 5 mM sodium butyrate in full medium for 2 days. Compounds are dissolved in appropriate solvent (like DMSO, 1-20 mM stock solutions). […] The transport solution (TL) is applied to the apical or basolateral donor side for measuring A-B or B-A permeability (3 filter replicates), respectively. The receiver side contains the same buffer as the donor side. Samples are collected at the start and end of experiment from the donor and at various time intervals for up to 2 hours also from the receiver side for concentration measurement by HPLC-MS/MS or scintillation counting. Sampled receiver volumes are replaced with fresh receiver solution. Efflux ratio is calculated dividing the Papp (b-a) values by the Papp (a-b) values.

| Compound | efflux ratio at 2 h | Papp A→B at 2 h [×10⁻⁶ cm/s] |
| --- | --- | --- |
| Cc1nn2cc(C3CC3)cnc2c1C(=O)NC1(c2ccc(C(F)(F)F)nc2)CCOCC1 [Example 25] | 0.8 | 100 |
| O=C(NC1(c2ccc(C(F)(F)F)cc2)CCOC1)c1cnn2cc(C3CC3)cnc12 (racemic) [Example 37] | 0.5 | 86 |
| O=C(NC1(c2ccc(C(F)(F)F)cc2F)CCOCC1)c1cnn2cc(F)cnc12 [Example 3] | 0.7 | 97 |
| Cc1nn2cc(C3CC3)cnc2c1C(=O)NC1(c2ccc(C(F)(F)F)cn2)CCOCC1 [Example 21] | 0.6 | 94 |
| Cc1cnc2c(C(=O)NC3(c4ccc(C(F)(F)F)cc4F)CCOCC3)cnn2c1 [Example 2] | 0.6 | 84 |
| Cc1nn2cc(C3CC3)cnc2c1C(=O)NC1(c2ncc(C(F)(F)F)cc2F)CCOCC1 [Example 17] | 0.6 | 85 |

Other lines, results leading:

| efflux ratio at 2 h | Papp A→B at 2 h [×10⁻⁶ cm/s] | Compound |
| --- | --- | --- |
| 1 | 59 | O=C(NC1(c2ccc(C(F)(F)F)cc2F)CCOCC1O)c1cnn2cc(C3CC3)cnc12 (single isomer, unassigned) [Example 82a] |
|  | 60 | Cc1cnc2c(C(=O)NC3(c4ccc(C(F)(F)F)cc4F)CCOCC3O)cnn2c1 (racemic) [Example 46] |
| 1.3 | 25 | O=C(NC1(c2ccc(C(F)(F)F)cc2F)COCC1O)c1cnn2cc(C3CC3)cnc12 (single isomer, unassigned) [Example 69] |
|  | 34 | Cc1cnc2c(C(=O)NC3(c4ccc(C(F)(F)F)cc4F)CCOCC3(C)O)cnn2c1 (single isomer, unassigned) [Example 83a] |
|  | 11 | Cc1nn2cc(C3CC3)cnc2c1C(=O)NC1(c2ccc(C(F)(F)F)nc2)CCOCC1O (racemic) [Example 51] |
|  | 60 | Cc1cnc2c(C(=O)NC3(c4ccc(C(F)(F)F)cc4F)CCOCC3O)cnn2c1 (single isomer, unassigned) [Example 81a] |
|  | 15 | CC1(O)COCCC1(NC(=O)c1cnn2cc(C3CC3)cnc12)c1ccc(C(F)(F)F)cc1F (racemic) [Example 53] |
